Reference: patent US8962624B2, “Morpholines as selective inhibitors of cytochrome P450 2A13” (University of Kansas, priority 2007, dated 2015)
Where “and” joins values, the source holds several entries; their conditions need not be identical. Equal entries are not always repeated. Structures can show the parent of a compound that is named as a salt. Where two headings read alike, the source gives them in different places.

What was measured:
CYP2A13 = target: T1, CYP2A13 (Homo sapiens, UniProt Q16696); assay: Spectral shift ligand binding titration (cuvette method) with purified CYP2A13dH; details: for Selectivity 2A6 Kd/2A13 Kd: (CYP2A6 Kd)/(CYP2A13 Kd), higher numbers are more selective
T1 construct: truncation of the non-catalytic N-terminal transmembrane helix and addition of a C-terminal 4× histidine tag; 4xHis (C); made in house; host or cells: E. coli
T1 sequence (Q16696 with tags, fused parts or gaps limits assumed): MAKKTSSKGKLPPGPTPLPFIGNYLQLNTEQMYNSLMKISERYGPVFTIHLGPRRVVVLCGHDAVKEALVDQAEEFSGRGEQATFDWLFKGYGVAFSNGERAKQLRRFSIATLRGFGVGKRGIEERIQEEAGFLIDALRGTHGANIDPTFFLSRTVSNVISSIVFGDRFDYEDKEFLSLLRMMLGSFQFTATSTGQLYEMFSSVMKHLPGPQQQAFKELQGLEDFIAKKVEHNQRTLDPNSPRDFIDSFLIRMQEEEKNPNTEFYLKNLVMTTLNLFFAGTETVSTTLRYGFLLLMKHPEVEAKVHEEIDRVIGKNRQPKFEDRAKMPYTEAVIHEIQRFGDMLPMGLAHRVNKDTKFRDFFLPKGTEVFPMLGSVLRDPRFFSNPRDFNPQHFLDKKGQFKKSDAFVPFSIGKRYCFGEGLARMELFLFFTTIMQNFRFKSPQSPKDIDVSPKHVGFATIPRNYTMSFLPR
Description: (§1) To date, virtually all attempts to characterize full-length mammalian cytochromes P450 have been restricted by the production of only small (nanomolar) amounts of protein. However, truncation of the non-catalytic N-terminal transmembrane helix and addition of a C-terminal 4× histidine tag allow us to recombinantly produce tens of milligrams of highly purified modified CYP2A13 and CYP2A6 proteins per liter of E. coli culture. These engineered versions of the proteins (CYP2A13dH and CYP2A6dH are not shown) are fully functional in both binding ligands and metabolism of substrates. Protein expression in E. coli is initiated with the addition of IPTG to media supplemented with the heme precursor aminolevulinic acid. After 48-72 hours this expression system yields approximately 500-1300 nmol (27-71 mg) of CYP2A13dH or CYP2A6dH per liter of bacterial culture. Briefly, P450 proteins are liberated from E, coli membranes using a specialized detergent and high salt conditions and subsequently purified using metal-affinity and carboxymethyl-sepharose (CM-sepharose) affinity chromatography. Overall purification yield is up to 14 mg of highly purified protein per liter of E. coli culture.
(§2) Cytochrome P4502A13dH was expressed and purified as previously described (J. Biol. Chem. (2007), 282(23)17306-17313). Briefly, CYP2A13 was solubilized from the membrane using 4.8 mM Cymal-5 detergent (Anatrace, Maumee, Ohio) and 0.3M NaCl followed by ultracentrifugation at 30,000 rpm for 60 minutes. The solubilized protein was applied to Ni^2+-agarose resin (Qiagen, Valencia, Calif.) and after extensive washing with Buffer A (0.1M potassium phosphate, pH 7.4, 20% glycerol, 0.2M sodium chloride, 4.8 mM cymal, 8 mM histidine), the protein was eluted using Buffer B (Buffer A containing 2 mM EDTA and 80 mM histidine). The fractions containing protein with absorbance at 415 nm were pooled, diluted 5-fold with Buffer C (5 mM potassium phosphate, pH 7.4, 20% glycerol, 4.8 mM Cymal-5), and loaded onto HiTrap CM-FF column. The column was washed extensively with Buffer C without the detergent. Purified CYP2A13 was eluted using Buffer C with 50 mM potassium phosphate and 500 mM NaCl. An average yield of 14 mgs of CYP2A13 was obtained per liter of E. coli culture, Cytochrome P4502A6dH was similarly prepared.
(§3) The UV/visible spectra of purified CYP2A13dH and CYP2A6dH have a Soret peak at 418 nm, indicative of a low-spin, six-coordinate configuration of the heme iron bound to an active site water molecule (FIG. 1A). When ligands bind in the active site they frequently displace the water from the iron, resulting in a shift to five-coordinate, high spin iron with a maximal absorbance 395 nm. For cytochrome P450 enzymes, one often records the spectrum shift that occurs as protein is titrated with ligand to determine ligand affinity (kd values) (FIG. 1B).
(§4) The compounds that induced spectral shifts close to that of the positive control (PEITC) were validated in the spectral shift assay using the low throughput cuvette method. CYP2A13 protein samples were diluted to a concentration of 1 μM in 100 mM potassium phosphate buffer (pH 7.4) and were divided equally between reference and sample 1 mL quartz cuvettes. Concentrated compound stocks were prepared in 100% DMSO and the sample baseline was taken from 300-500 nm before beginning the titration. Substrate was added to the sample cuvette, mixed, and allowed to equilibrate for 2 minutes. An equal amount of ethanol was added to the reference cuvette for every addition of compound stock to the sample. The total amount of ethanol was kept less than 2% for each titration. After each coumarin addition, difference spectra were recorded from 300-500 nm and the change maximum (˜420 nm) to the minimum (˜385 nm) was determined. Graphpad Prism 4 (Graphpad Software, San Diego, Calif.) was used to determine the Ks and ΔAmax with nonlinear least-squares regression fitting to the equation: […]

CYP2A6 = target: T2, CYP2A6 (Homo sapiens, UniProt P11509); assay: Spectral shift ligand binding titration with purified CYP2A6dH; details: for Kd / 2A6 Av. Kd: Table 1, average Kd; for Kd: read-out: 2A6 Av. Kd; for binding to CYP2A6 in titration / spectral shift with CYP2A6: result in words
T2 construct: truncation of the non-catalytic N-terminal transmembrane helix and addition of a C-terminal 4× histidine tag; 4xHis (C); made in house; host or cells: E. coli
T2 sequence (P11509 with tags, fused parts or gaps limits assumed): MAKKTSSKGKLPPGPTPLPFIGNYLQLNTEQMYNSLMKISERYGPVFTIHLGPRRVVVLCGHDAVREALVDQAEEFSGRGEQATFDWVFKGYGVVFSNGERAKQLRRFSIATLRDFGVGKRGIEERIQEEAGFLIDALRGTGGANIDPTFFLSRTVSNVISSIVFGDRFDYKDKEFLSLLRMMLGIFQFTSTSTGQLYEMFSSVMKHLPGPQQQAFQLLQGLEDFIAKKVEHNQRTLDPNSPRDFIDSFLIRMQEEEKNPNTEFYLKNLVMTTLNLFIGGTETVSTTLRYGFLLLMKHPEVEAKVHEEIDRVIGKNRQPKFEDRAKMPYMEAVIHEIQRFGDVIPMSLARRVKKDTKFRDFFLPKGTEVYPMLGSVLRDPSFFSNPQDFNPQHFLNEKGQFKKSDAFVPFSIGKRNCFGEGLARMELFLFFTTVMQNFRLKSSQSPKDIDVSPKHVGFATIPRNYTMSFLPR
Description: as §1, §2, §3, §4

[1] = Table 1, average Kd, read-out: 2A13 Av. Kd
[2] = initial characterisation of the hits, read-out: initial Kd values, CYP2A13
[3] = multiple titrations, read-out: average Kd for CYP2A13

Compound | Selectivity 2A6 Kd/2A13 Kd (CYP2A13) | Kd (CYP2A13; [1]) [µM] | Kd (CYP2A6) [µM] | Kd (CYP2A13; [2]) [µM] | Kd (CYP2A13; [3]) | 2A6 Av. Kd (CYP2A6) | binding to CYP2A6 in titration (CYP2A6) | spectral shift with CYP2A6 (CYP2A6) | Kd (CYP2A13; text b152, unit inferred, multiple titrations, read-out: average Kd) [µM] | Kd (CYP2A13; Table 2, unit inferred, read-out: 2A13 Kd) [µM]
Clc1ccccc1CN1CCOCC1 [Compound 1, 4-(2-chlorobenzyl)morpholine] | high | – | – | 1.8 | 7.3 µM | No binding | no substantially binding | no spectral shift | – | –
Fc1cccc(Cl)c1CN1CCOCC1 [Compound 2, 4-(2-chloro-6-fluorobenzyl)morpholine] | high | – | – | – | ~5.8 µM and 5.8 µM | No binding | no binding | absolutely no spectral shift | – | –
Cc1ccccc1CN1CCOCC1 [Compound 3, 4-(2-methylbenzyl)morpholine] | high | 19.3 | – | 4 | 19.3 µM | No binding | no substantially binding | no spectral shift | 19.3 | –
Brc1ccccc1CN1CCOCC1 [Compound 4, 4-(2-bromobenzyl)morpholine] | high | 7 | – | – | – | No binding | – | – | – | –
Fc1ccccc1CN1CCOCC1 [Compound 5, 4-(2-fluorobenzyl)morpholine] | high | 72.5 | – | – | – | No binding | – | – | – | –
Clc1ccccc1CN1CCSCC1 [Compound 6, 4-(2-chlorobenzyl)thiomorpholine] | 15.5 | 10 | 155 | – | – | – | – | – | – | –

Continued, values first:

Selectivity 2A6 Kd/2A13 Kd (CYP2A13) | Kd (CYP2A13; [1]) [µM] | Kd (CYP2A6) [µM] | Kd (CYP2A13; [2]) [µM] | Kd (CYP2A13; [3]) | 2A6 Av. Kd (CYP2A6) | binding to CYP2A6 in titration (CYP2A6) | spectral shift with CYP2A6 (CYP2A6) | Kd (CYP2A13; text b152, unit inferred, multiple titrations, read-out: average Kd) [µM] | Kd (CYP2A13; Table 2, unit inferred, read-out: 2A13 Kd) [µM] | Compound
12.9 | 37.7 | > 486 | – | – | – | – | – | – | – | 4-(2,3-dichlorobenzyl)-1,6-dimethylmorpholine [Compound 10]
27 | 28.5 | 788 | – | – | – | – | – | – | – | Clc1cccc(CN2CCOCC2)c1Cl [Compound 7, 4-(2,3-dichlorobenzyl)morpholine]
291 | 1.9 | 553 | – | – | – | – | – | – | – | Clc1cccc(Cl)c1CN1CCOCC1 [Compound 8, 4-(2,6-dichlorobenzyl)morpholine]
5.66 | 35 | 198 | – | – | – | – | – | – | – | Clc1ccc(CN2CCOCC2)c(Cl)c1 [Compound 9, 4-(2,4-dichlorobenzyl)morpholine]
– | – | – | – | – | – | – | – | – | 28.8 | C1CN(C2C3CC4CC(C3)CC2C4)CCO1 (centres unmarked) [Compound 31, 4-(2-adamantyl)morpholine hydrochloride]
